Laboratory results published in patent publication US20160166520A1, “METHODS AND COMPOSITIONS RELATING TO THE TREATMENT OF VISCERAL FAT AND ASTHMA” (YALE UNIVERSITY, priority 2014, published 2016).

Legend:
Sirt1 [1] = molecular target: T1, Sirt1 (Mus musculus, UniProt Q923E4); assay: OVA aeroallergen-induced adaptive Th2 lung inflammation in mice treated with Sirt1 inhibitor; format: in vivo; conditions: OVA sensitized and challenged, 0.4 mg/kg body weight per day i.p. one hour before every antigen challenge, vs DMSO vehicle
T1 construct: from tissue; host or cells: whole living mice (WT and Chi3l1-/-); read-outs in lung/BAL and epididymal fat pads
T1 sequence (Q923E4 1-737): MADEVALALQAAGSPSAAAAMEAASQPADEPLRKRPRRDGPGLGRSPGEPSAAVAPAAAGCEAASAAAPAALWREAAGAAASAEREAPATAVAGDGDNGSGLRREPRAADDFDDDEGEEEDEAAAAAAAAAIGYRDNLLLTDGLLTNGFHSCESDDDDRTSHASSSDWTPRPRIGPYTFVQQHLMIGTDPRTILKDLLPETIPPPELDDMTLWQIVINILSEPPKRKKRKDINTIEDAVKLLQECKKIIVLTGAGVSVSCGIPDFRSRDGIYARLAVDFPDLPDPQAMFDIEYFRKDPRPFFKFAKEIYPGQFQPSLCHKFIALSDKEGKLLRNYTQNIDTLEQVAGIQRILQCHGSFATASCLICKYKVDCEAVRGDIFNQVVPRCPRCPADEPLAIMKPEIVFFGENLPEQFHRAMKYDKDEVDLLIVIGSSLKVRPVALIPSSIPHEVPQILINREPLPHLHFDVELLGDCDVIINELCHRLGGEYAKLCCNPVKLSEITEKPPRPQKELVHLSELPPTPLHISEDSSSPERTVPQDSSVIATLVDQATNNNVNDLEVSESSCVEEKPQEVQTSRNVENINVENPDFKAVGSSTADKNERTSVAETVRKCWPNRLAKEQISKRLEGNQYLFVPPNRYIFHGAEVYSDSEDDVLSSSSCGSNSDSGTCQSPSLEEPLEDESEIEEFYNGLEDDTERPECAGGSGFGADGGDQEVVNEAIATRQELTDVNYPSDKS
Procedure: WT and Chit3l1^−/− mice were sensitized and challenged with OVA (ova+) or PBS (ova−) and were treated with Sirtinol or its vehicle (DMSO). Each animal received drug (0.4 mg/kg body weight per day) or vehicle one hour before every antigen challenge. FIGS. 6A-6B depict BAL total cell and eosinophil recovery, FIG. 6C depicts H&E photomicrographs of lungs from WT and Chi3l1^−/− mice treated with sirtinol or vehicle after OVA challenge, FIGS. 6D-6H depict the levels of mRNA encoding IL-4, IL-13, IL-17, IL-6 and TNF-α in the lungs of WT and Chi3l1^−/− mice treated with Sirtinol or DMSO. The noted values represent the mean±SEM of a minimum of 5 animals. (*p≦0.05, **p≦0.01). Mice were sensitized and challenged with ovalbumin (OVA) as previously described (20). One day after last challenge, the mice were sacrificed, bronchoalveolar lavage (BAL) was undertaken, and tissue responses were evaluated. Sirtinol, a Sirt1 inhibitor (Enzo Life Sciences) or vehicle control (0.05% dimethyl sulofoxide) were diluted with Phosphate Buffered Saline (PBS) and administered via an intraperitoneal (i.p.) route.

Sirt1 [2] = molecular target: T1, Sirt1; assay: Visceral (epididymal) fat accumulation in mice treated with Sirt1 inhibitor; format: in vivo; conditions: 0.4 mg/kg body weight per day i.p. twice per week for 5 weeks, vs DMSO vehicle
Procedure: WT and Chi3l1^−/− mice were treated with Sirtinol or its vehicle (DMSO) and fat accumulation was assessed. Each animal received drug (0.4 mg/kg body weight per day) or vehicle twice per week for 5 weeks. FIG. 7A depicts a representative photograph illustrating abdominal fat accumulation, FIG. 7B depicts the weight of epididymal fat pads from WT and chi3l1^−/− mice. The noted values represent the mean±SEM of a minimum of 5 animals. (*P≦0.05, **p≦0.01). Sirtinol, a Sirt1 inhibitor (Enzo Life Sciences) or vehicle control (0.05% dimethyl sulofoxide) were diluted with Phosphate Buffered Saline (PBS) and administered via an intraperitoneal (i.p.) route.

CC(NC(=O)c1ccccc1/N=C/c1c(O)ccc2ccccc12)c1ccccc1 (stereo not shown) [Sirtinol]
aeroallergen induced Th2 inflammation and Th2, IL-17 and IL-6 cytokine expression, and airway mucus (Sirt1 [1]; Chi3l1 null mice): restored
aeroallergen-induced Th2 inflammation and Th2, IL-17 and IL-6 cytokine production and mucus production in the lung (Sirt1 [1]; WT mice): diminished
levels of visceral fat (Sirt1 [2]; Chi3l1 null mice): restored
levels of visceral fat (Sirt1 [2]; WT mice): did not significantly alter
